Legend:
[1] = test system: Dnmt3a^−/−; Alpk1^−/− HSCs; experiment: ADP-heptose treatment of low-dose irradiated chimeric mice: donor HSC number, EdU proliferation, secondary transplant; type: in vivo, mouse
Excerpt: To model pre-leukemic clonal hematopoiesis, chimeric mice were generated as aas follows. Briefly, mixture of 1×10^6 whole bone marrow cells (WBM) were obtained from Poly (I:C) treated wild-type (Dnmt3a^+/+; MxCre^+, called Dnmt3a^WT) or mutant mice (Dnmt3a^f/f; MxCre^+, called Dnmt3a^KO) or double mutant mice (Dnmt3a^f/f; MxCre^+; Alpk1^KO, called Dnmt3a^KO; Alpk1^KO) (CD45.2^+), and transplanted into low-dose (2.5 Gy) irradiated recipient mice (CD45.1^+; 6-10 weeks of age). 8 weeks post-transplant, chimeric mice were treated with either water (H2O) or DSS (2.5%) for 1 week, and allowed to recover for 1 more week on water after which flow cytometry was performed on BM. In separate experiment, chimeric mice were pre-treated with broad spectrum antibiotics (ABX) for 4 weeks, and then subjected to DSS for 1 week after which flow cytometry performed on BM. In a separate set of experiment, chimeric mice were treated with either H2O or ADP-heptose (0.5 mg/kg) for 2 weeks, and flow cytometry performed after 2 more weeks on BM. In all the experiments, secondary transplantation was performed by purifying donor HSCs (CD45.2^+Lin^−Sca-1^+c-Kit^+Flk2^−CD150^+CD48^−) and transplanting 100 HSCs with 200,000 helper WBM cells (CD45.1+) into lethally irradiated (8 Gy) recipient mice (CD45.1^+), and donor chimerism in PB examined by flow cytometry.

MDS CD34+ HSPCs = experiment: Immunoblot of NF-κB activation in CD34+ HSPCs; type: cell-based, human
Experimental: (§1) Human CD34+ and MDS patient cells were maintained in StemSpan Serum-Free Expansion Media (Cat no. #09650, Stemcell Technologies) supplemented with 10 ng/ml of recombinant human stem cell factor (SCF) (Cat no. 300-07-50UG, PeproTech), recombinant human thrombopoietin (TPO) (Cat no. 300-18-50UG, PeproTech), recombinant human FLT3 ligand (FLT3L) (Cat no. 300-19-50UG, PeproTech), recombinant human interleukin-3 (IL-3) (Cat no. 200-03-50UG, PeproTech), and recombinant human interleukin-6 (IL-6) (Cat no. 200-06-50UG, PeproTech), as previously described. Human CD34+ cells from healthy individuals were obtained from the Yale Cooperative Center of Excellence in Hematology (YCCEH). […]
(§2) Protein concentration was evaluated by bicinchoninic acid (BCA) assay (Pierce, Cat #23225). SDS sample buffer was added to the lysates and the proteins were separated by SDS-polyacrylamide gel electrophoresis, transferred to PVDF or nitrocellulose membranes (BIO-RAD, Cat #1620112), and analyzed by immunoblotting. […] Membranes were visualized using ECL Western Blotting Substrate (Pierce, #32106) or SuperSignal West Femto Substrate (Thermo Scientific, #34096), imaged on a BIO-RAD ChemiDoc Touch Imaging system and analyzed with Image lab software 6.0.1 (Biorad) or Image J (22930834).

healthy donor cells = experiment: Immunoblot of NF-κB activation in CD34+ HSPCs; type: cell-based, human
Experimental: as §1, §2

## Nc1ncnc2c1ncn2[C@@H]1O[C@H](COP(=O)(O)OP(=O)(O)O[C@@H]2O[C@H]([C@H](O)CO)[C@@H](O)[C@H](O)[C@@H]2O)[C@@H](O)[C@H]1O [ADP-heptose, ADP-D-glycero-β-D-manno-heptose]
[1]
  proliferation of HSCs in vivo (EdU): completely abrogated
[1]; ADP-heptose administration
  expansion and self-renewal in recipient mice: unable to expand nor self-renew
MDS CD34+ HSPCs
  TIFA-dependent activation of NF-κB (phosphorylated IKKα/β and RelA): able to induce TIFA-dependent activation of NF-κB
Healthy donor cells
  TIFA-dependent activation of NF-κB (phosphorylated IKKα/β and RelA): not in healthy donor cells
